One may read the Kb as the equilibrium dissociation constant of an antagonist, usually derived from a functional assay. For orientation: Ki means the dissociation constant of the complex between target and ligand, obtained from inhibition or displacement.

Calls of active or inactive are those of the source. The rule behind the calls is not given here.

The results in this text go back to ChEMBL document CHEMBL3739404, “Arylsulfonamide derivatives of (aryloxy)ethylpiperidines as selective 5-HT7receptor antagonists and their psychotropic properties” (Medchemcomm, 2015).

Data set [1] concerns Mus musculus. The data set can be described thus: Antidepressant-like activity in albino Swiss mouse assessed as reduction in immobility time at 10 mg/kg, ip dosed 30 mins before test by forced swim test. Type of data set: functional. The arrangement: scale not given: the % may be the effect or the level left.
Data set [2] has as its system Mus musculus. The data set can be described thus: Toxicity in albino Swiss mouse assessed as effect on spontaneous locomotor activity at 10 mg/kg, ip dosed 30 mins before test measured for 2 to 6 mins by M3 multichannel activity test. Type of data set: organism-based. The settings on record: in vivo.
The test system of data set [3] is Mus musculus. Description: Anxiolytic-like activity in albino Swiss mouse assessed as increase in number of punished crossings at 1 mg/kg, ip dosed 30 mins before test by four plate test. It counts as functional, organism-based.
The subject of data set [4] is Mus musculus. Description: Toxicity in albino Swiss mouse assessed as effect on spontaneous locomotor activity at 1 mg/kg, ip dosed 30 mins before test measured for 1 min 15 secs by M3 multichannel activity test. It counts as organism-based. The conditions noted are these: in vivo.
Data set [5] has as its target T1, 5-hydroxytryptamine receptor 7 (Homo sapiens, UniProt P34969). The data set can be described thus: Antagonist activity at human 5-HT7B receptor expressed in HEK293 cells assessed as inhibition of 5-carboxyamidotryptamine-induced cAMP production after 30 mins by TR-FRET assay. It counts as functional, cell-based. A general note: Changes in cAMP serve as a functional read-out for many G protein-coupled receptors.

Data set [6] concerns the target T1, 5-hydroxytryptamine receptor 7. The data set can be described thus: Antagonist activity at human serotonin 5-HT7B receptor expressed in CHO cells assessed as inhibition of serotonin-induced cAMP production after 30 mins by HTRF assay. Type of data set: functional, cell-based.
The target of data set [7] is 5-hydroxytryptamine receptor 6 (Homo sapiens, UniProt P50406). The data set can be described thus: Displacement of [3H]-LSD from human serotonin 5-HT6 receptor expressed in HEK293 cells after 1 hr by microplate reader based assay. Type of data set: cell-based. A general note: Displacement assays read how much labelled ligand stays bound in the presence of the test substance.

Another data set has as its target D(2) dopamine receptor (Homo sapiens, UniProt P14416). Description: Displacement of [3H]-Raclopride from human dopamine D2L receptor expressed in HEK293 cells after 1 hr by microplate reader based assay. Type of data set: cell-based.
Data set [8] deals with T2, Adrenergic receptor alpha-1 (Rattus norvegicus, UniProt P15823+P23944+P43140).
T2 sequence (P15823 whole entry): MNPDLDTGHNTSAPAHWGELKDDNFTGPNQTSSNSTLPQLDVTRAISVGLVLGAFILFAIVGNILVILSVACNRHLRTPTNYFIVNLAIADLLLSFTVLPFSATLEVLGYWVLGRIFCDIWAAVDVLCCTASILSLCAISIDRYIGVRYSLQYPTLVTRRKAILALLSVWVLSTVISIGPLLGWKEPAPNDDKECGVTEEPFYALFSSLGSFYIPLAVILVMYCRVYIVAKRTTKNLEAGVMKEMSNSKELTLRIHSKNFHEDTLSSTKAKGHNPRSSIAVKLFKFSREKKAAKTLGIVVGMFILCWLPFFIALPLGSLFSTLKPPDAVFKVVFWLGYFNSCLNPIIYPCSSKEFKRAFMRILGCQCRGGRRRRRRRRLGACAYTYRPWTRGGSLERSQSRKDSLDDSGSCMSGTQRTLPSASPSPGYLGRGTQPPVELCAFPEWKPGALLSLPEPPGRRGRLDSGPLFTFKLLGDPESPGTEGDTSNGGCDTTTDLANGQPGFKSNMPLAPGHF
T2 sequence (P23944 whole entry): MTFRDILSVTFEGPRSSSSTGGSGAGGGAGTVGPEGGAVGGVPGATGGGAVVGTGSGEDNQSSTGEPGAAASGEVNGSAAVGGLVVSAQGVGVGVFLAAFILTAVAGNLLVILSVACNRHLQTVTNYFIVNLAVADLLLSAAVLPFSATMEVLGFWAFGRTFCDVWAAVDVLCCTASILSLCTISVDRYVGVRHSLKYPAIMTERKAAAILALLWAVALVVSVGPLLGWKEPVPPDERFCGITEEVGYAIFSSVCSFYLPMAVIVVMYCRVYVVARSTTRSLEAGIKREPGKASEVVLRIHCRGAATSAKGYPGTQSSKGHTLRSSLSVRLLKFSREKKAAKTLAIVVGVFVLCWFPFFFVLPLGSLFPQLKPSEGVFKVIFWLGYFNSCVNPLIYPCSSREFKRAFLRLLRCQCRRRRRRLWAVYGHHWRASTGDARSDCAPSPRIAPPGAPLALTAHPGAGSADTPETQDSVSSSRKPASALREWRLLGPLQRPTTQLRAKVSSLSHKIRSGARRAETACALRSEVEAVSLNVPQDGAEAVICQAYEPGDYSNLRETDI
T2 sequence (P43140 whole entry): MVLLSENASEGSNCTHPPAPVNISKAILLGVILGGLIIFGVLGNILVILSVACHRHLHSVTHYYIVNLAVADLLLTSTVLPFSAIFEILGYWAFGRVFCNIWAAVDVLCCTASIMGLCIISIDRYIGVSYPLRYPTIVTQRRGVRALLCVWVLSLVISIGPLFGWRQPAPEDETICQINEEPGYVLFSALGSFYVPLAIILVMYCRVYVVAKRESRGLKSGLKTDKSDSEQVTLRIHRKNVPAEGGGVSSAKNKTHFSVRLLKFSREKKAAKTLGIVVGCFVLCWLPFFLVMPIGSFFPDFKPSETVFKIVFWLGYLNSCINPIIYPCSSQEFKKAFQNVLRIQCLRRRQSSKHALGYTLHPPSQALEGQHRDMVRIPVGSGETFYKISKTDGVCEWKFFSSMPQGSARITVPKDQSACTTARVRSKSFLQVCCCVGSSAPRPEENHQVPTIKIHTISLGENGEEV
The data set can be described thus: Displacement of [3H]-Prazosin from alpha-1 adrenergic receptor in rat cerebral cortex after 1 hr by microplate reader based assay. It counts as tissue-based.

The target of data set [9] is Beta-1 adrenergic receptor (Homo sapiens) (UniProt P08588). The data set can be described thus: Binding affinity to beta-1 adrenergic receptor (unknown origin) at 1 uM.
Data set [10] has as its system Mus musculus. The data set can be described thus: Toxicity in albino Swiss mouse assessed as effect on spontaneous locomotor activity at 5 mg/kg, ip dosed 60 mins before test measured for 2 to 6 mins by M3 multichannel activity test. It counts as organism-based. The conditions noted are these: in vivo.
A further data set deals with Rattus norvegicus. Description: Pro-cognitive effect in Sprague-Dawley rat assessed as reduction in PCP-induced memory deficits administered ip 1 hr 15 mins before familiarization phase by novel object recognition test. It counts as functional, organism-based.
Data set [11] concerns the target T3, Muscarinic acetylcholine receptor M1 (Homo sapiens) (UniProt P11229).
T3 sequence (whole entry): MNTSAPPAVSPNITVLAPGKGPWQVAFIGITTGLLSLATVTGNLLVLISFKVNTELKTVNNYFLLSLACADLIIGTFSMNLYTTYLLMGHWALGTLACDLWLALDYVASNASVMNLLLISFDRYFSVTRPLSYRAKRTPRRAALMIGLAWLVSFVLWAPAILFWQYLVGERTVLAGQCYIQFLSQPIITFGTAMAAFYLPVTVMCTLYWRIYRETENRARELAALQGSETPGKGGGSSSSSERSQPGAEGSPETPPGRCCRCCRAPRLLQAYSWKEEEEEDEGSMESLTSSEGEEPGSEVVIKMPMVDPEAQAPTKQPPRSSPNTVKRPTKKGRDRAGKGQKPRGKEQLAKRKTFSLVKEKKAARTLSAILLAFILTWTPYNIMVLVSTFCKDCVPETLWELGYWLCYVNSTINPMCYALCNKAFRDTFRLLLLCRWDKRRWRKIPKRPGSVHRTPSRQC
Description: Binding affinity to muscarinic acetylcholine receptor M1 (unknown origin) at 1 uM.

Data set [12] addresses Histamine H1 receptor (Homo sapiens) (UniProt P35367). The data set can be described thus: Binding affinity to histamine H1 receptor (unknown origin) at 1 uM.
For data set [13], the system named is Mus musculus. Description: Toxicity in ip dosed albino Swiss mouse assessed as effect on spontaneous locomotor activity dosed 60 mins before test measured for 1 min 15 secs by M3 multichannel activity test. It counts as organism-based. The settings on record: in vivo.
The target in data set [14] is T1, 5-hydroxytryptamine receptor 7. Description: Displacement of [3H]-5-carboxyamidotryptamine from human serotonin 5-HT7B receptor expressed in HEK293 cells after 1 hr by microplate reader based assay. Type of data set: cell-based.
Data set [15] has as its target T4, 5-hydroxytryptamine receptor 1A (Homo sapiens, UniProt P08908).
T4 sequence (P08908 whole entry): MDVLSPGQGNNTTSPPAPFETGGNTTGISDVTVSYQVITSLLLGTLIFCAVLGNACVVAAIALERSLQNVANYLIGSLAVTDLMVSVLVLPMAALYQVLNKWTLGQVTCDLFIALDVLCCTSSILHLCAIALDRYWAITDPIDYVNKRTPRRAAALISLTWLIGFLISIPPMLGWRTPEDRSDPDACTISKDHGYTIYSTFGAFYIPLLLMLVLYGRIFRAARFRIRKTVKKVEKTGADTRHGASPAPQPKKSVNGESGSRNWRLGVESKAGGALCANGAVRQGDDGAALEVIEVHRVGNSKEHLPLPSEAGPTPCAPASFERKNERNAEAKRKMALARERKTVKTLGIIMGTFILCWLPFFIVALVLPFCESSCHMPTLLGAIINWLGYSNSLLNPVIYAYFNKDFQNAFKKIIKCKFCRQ
The data set can be described thus: Displacement of [3H]-8-OH-DPAT from human serotonin 5-HT1A receptor expressed in HEK293 cells after 1 hr by microplate reader based assay. It counts as cell-based.

In data set [16] the test system is Mus musculus. The data set can be described thus: Anxiolytic-like activity in albino Swiss mouse assessed as increase in number of punished crossings at 1.25 mg/kg, ip dosed 60 mins before test by four plate test. It counts as functional.
Data set [17] concerns Mus musculus. Description: Toxicity in albino Swiss mouse assessed as effect on spontaneous locomotor activity at 2.5 mg/kg, ip dosed 60 mins before test measured for 2 to 6 mins by M3 multichannel activity test. It counts as organism-based. The settings on record: in vivo.
The subject of data set [18] is Mus musculus. Description: Toxicity in albino Swiss mouse assessed as effect on spontaneous locomotor activity at 1.25 mg/kg, ip dosed 60 mins before test measured for 1 min 15 secs by M3 multichannel activity test. Type of data set: organism-based. The conditions noted are these: in vivo.

T1 sequence (P34969 whole entry): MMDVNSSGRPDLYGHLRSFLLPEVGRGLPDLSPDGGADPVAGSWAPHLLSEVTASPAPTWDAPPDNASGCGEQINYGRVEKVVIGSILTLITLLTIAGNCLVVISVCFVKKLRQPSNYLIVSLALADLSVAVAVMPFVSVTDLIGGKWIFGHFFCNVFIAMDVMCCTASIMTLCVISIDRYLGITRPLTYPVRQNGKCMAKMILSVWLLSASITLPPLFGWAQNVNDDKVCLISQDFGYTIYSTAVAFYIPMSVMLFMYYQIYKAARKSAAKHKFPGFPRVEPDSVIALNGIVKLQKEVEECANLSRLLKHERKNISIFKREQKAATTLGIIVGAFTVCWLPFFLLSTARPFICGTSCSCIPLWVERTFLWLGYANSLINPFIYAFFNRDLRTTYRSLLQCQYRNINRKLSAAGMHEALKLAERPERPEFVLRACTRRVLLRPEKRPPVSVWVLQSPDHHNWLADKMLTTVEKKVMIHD
Sequence of 5-hydroxytryptamine receptor 6 (P50406 whole entry): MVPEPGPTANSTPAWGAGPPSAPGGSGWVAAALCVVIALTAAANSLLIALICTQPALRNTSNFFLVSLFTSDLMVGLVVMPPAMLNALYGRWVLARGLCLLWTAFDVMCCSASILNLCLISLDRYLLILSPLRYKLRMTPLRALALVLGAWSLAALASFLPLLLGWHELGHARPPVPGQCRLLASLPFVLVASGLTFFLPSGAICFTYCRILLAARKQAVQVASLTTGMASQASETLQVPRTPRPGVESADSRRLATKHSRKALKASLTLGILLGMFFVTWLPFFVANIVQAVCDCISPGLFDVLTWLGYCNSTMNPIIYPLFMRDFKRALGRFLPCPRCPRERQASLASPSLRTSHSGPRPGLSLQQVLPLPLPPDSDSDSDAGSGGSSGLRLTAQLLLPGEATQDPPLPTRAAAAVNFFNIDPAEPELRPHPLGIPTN
Sequence of Histamine H1 receptor (Homo sapiens) (P35367 whole entry): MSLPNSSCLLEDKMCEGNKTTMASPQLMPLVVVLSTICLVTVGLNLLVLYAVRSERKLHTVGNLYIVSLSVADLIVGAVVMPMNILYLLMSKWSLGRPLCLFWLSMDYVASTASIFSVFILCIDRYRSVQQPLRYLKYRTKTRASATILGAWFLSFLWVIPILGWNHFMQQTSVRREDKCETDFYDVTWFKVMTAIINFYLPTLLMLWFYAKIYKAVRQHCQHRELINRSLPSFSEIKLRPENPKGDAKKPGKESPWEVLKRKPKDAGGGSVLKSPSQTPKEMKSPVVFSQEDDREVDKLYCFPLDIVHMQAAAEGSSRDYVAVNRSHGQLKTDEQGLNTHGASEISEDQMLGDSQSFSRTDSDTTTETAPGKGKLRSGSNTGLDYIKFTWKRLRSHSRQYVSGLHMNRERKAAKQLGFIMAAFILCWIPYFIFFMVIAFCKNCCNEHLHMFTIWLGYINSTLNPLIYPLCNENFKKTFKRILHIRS
Sequence of D(2) dopamine receptor (P14416 whole entry): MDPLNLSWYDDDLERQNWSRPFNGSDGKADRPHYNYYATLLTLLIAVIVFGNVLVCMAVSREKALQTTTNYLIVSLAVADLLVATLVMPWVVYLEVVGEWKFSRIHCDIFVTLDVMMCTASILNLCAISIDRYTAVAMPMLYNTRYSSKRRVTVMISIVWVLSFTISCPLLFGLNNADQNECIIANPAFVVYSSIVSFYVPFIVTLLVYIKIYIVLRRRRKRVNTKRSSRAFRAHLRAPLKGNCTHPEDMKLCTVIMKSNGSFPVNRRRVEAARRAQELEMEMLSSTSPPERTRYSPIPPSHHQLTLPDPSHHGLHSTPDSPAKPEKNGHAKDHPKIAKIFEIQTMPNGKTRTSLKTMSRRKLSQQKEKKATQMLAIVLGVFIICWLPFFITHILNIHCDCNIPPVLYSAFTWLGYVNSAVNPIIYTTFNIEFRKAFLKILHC
Sequence of Beta-1 adrenergic receptor (Homo sapiens) (P08588 whole entry, looked up): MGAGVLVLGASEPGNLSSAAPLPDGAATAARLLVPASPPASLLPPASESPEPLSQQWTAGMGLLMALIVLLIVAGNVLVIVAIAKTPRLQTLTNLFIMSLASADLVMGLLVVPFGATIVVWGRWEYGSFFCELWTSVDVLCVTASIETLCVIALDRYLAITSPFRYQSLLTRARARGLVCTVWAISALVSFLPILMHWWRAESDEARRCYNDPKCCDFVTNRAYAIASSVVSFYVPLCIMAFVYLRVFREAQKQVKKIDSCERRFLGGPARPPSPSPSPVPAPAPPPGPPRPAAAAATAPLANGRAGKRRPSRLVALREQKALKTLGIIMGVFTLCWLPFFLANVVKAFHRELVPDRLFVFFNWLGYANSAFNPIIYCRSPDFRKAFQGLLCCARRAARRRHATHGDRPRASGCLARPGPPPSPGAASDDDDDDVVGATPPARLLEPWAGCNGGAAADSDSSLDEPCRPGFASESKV

For `CC1CCN(CC[C@H]2CCCN2S(=O)(=O)c2cccc(O)c2)CC1`, the Activity with Mus musculus [1] is recorded as 33%; with Mus musculus [2] it was “Non-toxic”; in the data set on Mus musculus [4], “Non-toxic”. Besides, the outcome in the data set on Mus musculus [3] was Active.

With `CC(C)c1ccccc1OCCN1CCC(NS(=O)(=O)c2ccccc2F)CC1`, the antagonist dissociation constant (Kb) was found to be 12 nM in [5] and 1 nM in data set [6]. The inhibition constant Ki in data set [7] came to 240 nM; at D(2) dopamine receptor it was 51 nM; in [8], 629 nM. Besides, the Activity is under 10% in [9]; “Non-toxic” in the data set on Mus musculus [10]; “Dose-dependent effect” in the data set on Rattus norvegicus; under 10% in [11]; under 74% in [12]; “Non-toxic” in the data set on Mus musculus [13].

For `CC(C)c1ccccc1OCCN1CCC(NS(=O)(=O)c2cccc(F)c2)CC1`, the inhibition constant Ki in data set [14] was 9 nM; in data set [15], 356 nM; in data set [7], 471 nM; on D(2) dopamine receptor, 102 nM. Moreover, in [5], the Kb was 26 nM. In addition, the Activity is 75% with Mus musculus [16]; under 10% in [9]; “Non-toxic” in the data set with Mus musculus [17]; “Dose-dependent effect” in the data set with Rattus norvegicus; under 10% in data set [11]; under 74% in [12]. For the same compound, the Activity result with Mus musculus [18] was “Non-toxic”.
